According to ChEMBL document CHEMBL5260820, “Discovery of novel steroidal histamine H3 receptor antagonists/inverse agonists” (Bioorg Med Chem Lett, 2017):

What was measured:
Histamine H3 receptor [1] = target: Histamine H3 receptor (Rattus norvegicus, UniProt Q9QYN8); assay: Displacement of N-alpha-[methyl-3H]-methylhistamine dihydrochloride from Sprague-Dawley rat brain membrane histamine H3 receptor assessed as inhibition constant incubated for 30 mins by liquid scintillation counting analysis; assay type: cell membranes
Histamine H3 receptor [2] = target: T1, Histamine H3 receptor (Homo sapiens, UniProt Q9Y5N1); assay: Antagonist activity at human histamine H3 receptor expressed in CHO-K1 cells assessed as inhibition of imetit-stimulation ERK1/2 phosphorylation by ELISA analysis; assay type: cell-based
Rattus norvegicus [3] = species: Rattus norvegicus; assay: Displacement of [3H]quinuclidinyl benzilate from Wistar rat cortex muscarinic AChR at 1 uM by liquid scintillation counting analysis relative to control; assay type: tissue-based
Histamine H3 receptor [4] = target: T1, Histamine H3 receptor; assay: Inverse agonist activity at recombinant human histamine H3 receptor expressed in CHO-K1 cells preincubated for 10 mins followed by [35S]GTPgammaS addition and measured after 60 mins by TopCount NXT based scintillation analysis; assay type: cell-based
Histamine H3 receptor [5] = target: T1, Histamine H3 receptor; assay: Displacement of N-alpha-[methyl-3H]-methylhistamine dihydrochloride from recombinant human histamine H3 receptor expressed in CHO-K1 cells assessed as inhibition constant incubated for 30 mins by liquid scintillation analysis; assay type: cell-based
[6] = target: Histamine H3 receptor (Rattus norvegicus) (UniProt Q9QYN8); assay: Displacement of N-alpha-[methyl-3H]-methylhistamine dihydrochloride from Sprague-Dawley rat brain membrane histamine H3 receptor at 300 nM incubated for 30 mins by liquid scintillation counting analysis relative to control; assay type: cell membranes
[7] = Displacement of [3H]quinuclidinyl benzilate from Wistar rat cortex muscarinic AChR assessed as inhibition constant by liquid scintillation counting analysis; assay type: tissue-based
[8] = Selectivity index, ratio of Ki for displacement of [3H]quinuclidinyl benzilate from Wistar rat cortex muscarinic AChR to Ki for N-alpha-[methyl-3H]-methylhistamine dihydrochloride from Sprague-Dawley rat brain membrane histamine H3 receptor
Rattus norvegicus [9] = species: Rattus norvegicus; assay: Displacement of [3H]quinuclidinyl benzilate from Wistar rat cortex muscarinic AChR at 3 uM by liquid scintillation counting analysis relative to control; assay type: tissue-based
Histamine H3 receptor [10] = target: T1, Histamine H3 receptor; assay: Inverse agonist activity at recombinant human histamine H3 receptor expressed in CHO-K1 cells assessed as maximal efficacy preincubated for 10 mins followed by [35S]GTPgammaS addition and measured after 60 mins by TopCount NXT based scintillation analysis relative to control; assay type: cell-based; details: filed as inverse agonist, time 70.0 min
[11] = target: Histamine H1 receptor (Homo sapiens) (UniProt P35367); assay: Displacement of [3H]pyrilamine from recombinant human histamine H1 receptor expressed in CHO-K1 cell membrane at 1 uM incubated for 30 mins by liquid scintillation counter analysis relative to control; assay type: cell membranes
[12] = target: Histamine H4 receptor (Homo sapiens) (UniProt Q9H3N8); assay: Displacement of [3H]histamine from human histamine H4 receptors expressed in CHO-K1 cell membrane at 1 uM incubated for 30 mins by scintillation counter analysis relative to control; assay type: cell membranes
[13] = target: Histamine H2 receptor (Homo sapiens) (UniProt P25021); assay: Displacement of [3H]tiotidine from recombinant human histamine H2 receptor expressed in CHO-K1 cell membrane at 1 uM incubated for 45 mins by Scintillation counter analysis relative to control; assay type: cell membranes
[14] = target: T2, Estrogen receptor (Homo sapiens) (UniProt P03372); assay: Binding affinity to Estrogen receptor alpha (unknown origin) at 1 uM by displacement assay relative to control
T2 sequence (whole entry): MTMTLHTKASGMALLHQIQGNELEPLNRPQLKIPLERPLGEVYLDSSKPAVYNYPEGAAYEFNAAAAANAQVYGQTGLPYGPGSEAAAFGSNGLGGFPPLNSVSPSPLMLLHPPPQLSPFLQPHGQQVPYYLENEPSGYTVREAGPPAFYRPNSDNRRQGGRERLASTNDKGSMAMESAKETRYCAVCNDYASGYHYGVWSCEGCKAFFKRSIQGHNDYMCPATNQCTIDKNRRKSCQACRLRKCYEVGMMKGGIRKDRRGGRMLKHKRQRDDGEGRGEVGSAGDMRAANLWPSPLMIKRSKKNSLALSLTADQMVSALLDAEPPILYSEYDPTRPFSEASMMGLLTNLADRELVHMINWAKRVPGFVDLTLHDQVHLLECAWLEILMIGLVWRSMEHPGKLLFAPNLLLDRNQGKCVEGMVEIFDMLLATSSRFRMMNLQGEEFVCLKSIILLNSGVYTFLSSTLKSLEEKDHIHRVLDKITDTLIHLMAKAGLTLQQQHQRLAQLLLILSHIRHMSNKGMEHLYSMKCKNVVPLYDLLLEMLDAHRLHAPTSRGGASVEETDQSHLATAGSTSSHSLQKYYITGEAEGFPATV

[15] = target: Estrogen receptor beta (Homo sapiens) (UniProt Q92731); assay: Binding affinity to Estrogen receptor beta (unknown origin) at 1 uM by displacement assay relative to control
Sequence of Estrogen receptor beta (Homo sapiens) (Q92731 whole entry): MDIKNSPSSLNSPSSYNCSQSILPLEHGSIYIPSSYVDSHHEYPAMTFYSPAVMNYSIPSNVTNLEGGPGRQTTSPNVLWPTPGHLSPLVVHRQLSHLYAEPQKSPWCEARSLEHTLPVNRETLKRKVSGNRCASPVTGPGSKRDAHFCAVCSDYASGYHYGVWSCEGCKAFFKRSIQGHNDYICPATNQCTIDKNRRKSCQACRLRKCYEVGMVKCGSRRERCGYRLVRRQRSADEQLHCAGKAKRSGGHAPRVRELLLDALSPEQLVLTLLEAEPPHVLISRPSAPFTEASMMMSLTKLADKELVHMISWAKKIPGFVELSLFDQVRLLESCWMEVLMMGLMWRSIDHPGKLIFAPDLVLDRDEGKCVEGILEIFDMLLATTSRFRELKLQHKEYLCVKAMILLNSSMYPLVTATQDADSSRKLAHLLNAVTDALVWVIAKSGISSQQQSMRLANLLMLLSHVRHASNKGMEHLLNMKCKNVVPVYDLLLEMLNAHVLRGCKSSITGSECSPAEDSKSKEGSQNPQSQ

T1 sequence (Q9Y5N1 whole entry): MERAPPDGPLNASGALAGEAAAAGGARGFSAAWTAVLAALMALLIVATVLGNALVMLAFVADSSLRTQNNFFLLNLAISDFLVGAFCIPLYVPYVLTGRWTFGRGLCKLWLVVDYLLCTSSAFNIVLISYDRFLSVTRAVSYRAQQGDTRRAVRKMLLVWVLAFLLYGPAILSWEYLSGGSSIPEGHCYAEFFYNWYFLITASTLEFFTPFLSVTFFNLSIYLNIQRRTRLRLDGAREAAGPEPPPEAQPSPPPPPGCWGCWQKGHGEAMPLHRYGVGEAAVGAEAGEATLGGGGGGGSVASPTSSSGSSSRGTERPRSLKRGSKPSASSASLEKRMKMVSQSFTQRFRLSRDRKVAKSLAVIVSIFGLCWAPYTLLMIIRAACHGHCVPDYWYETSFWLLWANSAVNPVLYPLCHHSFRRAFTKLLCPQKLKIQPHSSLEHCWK
Sequence of Histamine H3 receptor (Rattus norvegicus, UniProt Q9QYN8) (Q9QYN8 whole entry): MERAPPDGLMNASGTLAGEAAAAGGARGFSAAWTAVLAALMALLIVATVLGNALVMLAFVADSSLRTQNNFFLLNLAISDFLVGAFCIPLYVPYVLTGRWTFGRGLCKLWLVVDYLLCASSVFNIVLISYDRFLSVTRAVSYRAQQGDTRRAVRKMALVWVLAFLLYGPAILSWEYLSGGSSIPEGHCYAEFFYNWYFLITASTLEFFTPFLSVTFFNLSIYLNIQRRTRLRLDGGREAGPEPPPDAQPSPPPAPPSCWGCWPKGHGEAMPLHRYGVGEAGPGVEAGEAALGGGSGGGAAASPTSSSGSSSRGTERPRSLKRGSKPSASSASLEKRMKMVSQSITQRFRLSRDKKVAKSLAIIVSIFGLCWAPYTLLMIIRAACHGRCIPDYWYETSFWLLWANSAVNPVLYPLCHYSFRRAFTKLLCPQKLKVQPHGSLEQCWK
Sequence of Histamine H1 receptor (Homo sapiens) (P35367 whole entry): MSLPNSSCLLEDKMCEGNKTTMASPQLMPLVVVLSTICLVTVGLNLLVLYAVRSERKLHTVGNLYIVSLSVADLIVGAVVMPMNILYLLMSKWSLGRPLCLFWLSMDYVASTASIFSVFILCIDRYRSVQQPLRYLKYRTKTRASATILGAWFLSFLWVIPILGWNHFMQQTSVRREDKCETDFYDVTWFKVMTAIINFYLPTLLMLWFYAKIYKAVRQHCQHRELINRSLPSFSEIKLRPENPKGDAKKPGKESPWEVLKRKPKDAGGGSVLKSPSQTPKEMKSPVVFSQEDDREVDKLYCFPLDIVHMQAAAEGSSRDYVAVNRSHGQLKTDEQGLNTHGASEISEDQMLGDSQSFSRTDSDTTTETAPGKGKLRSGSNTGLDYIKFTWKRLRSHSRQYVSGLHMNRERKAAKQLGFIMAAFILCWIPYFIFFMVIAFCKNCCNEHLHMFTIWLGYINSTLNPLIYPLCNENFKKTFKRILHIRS
Sequence of Histamine H4 receptor (Homo sapiens) (Q9H3N8 whole entry): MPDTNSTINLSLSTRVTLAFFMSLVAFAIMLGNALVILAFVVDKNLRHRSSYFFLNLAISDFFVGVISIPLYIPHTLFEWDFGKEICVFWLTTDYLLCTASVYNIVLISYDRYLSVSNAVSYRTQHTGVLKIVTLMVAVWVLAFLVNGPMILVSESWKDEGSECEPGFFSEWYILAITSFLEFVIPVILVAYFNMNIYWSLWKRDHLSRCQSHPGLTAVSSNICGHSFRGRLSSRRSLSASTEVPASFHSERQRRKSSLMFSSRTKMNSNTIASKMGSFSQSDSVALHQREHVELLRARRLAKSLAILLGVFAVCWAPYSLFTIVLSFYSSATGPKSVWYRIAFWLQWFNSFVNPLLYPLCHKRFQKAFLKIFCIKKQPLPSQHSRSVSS
Sequence of Histamine H2 receptor (Homo sapiens) (P25021 whole entry): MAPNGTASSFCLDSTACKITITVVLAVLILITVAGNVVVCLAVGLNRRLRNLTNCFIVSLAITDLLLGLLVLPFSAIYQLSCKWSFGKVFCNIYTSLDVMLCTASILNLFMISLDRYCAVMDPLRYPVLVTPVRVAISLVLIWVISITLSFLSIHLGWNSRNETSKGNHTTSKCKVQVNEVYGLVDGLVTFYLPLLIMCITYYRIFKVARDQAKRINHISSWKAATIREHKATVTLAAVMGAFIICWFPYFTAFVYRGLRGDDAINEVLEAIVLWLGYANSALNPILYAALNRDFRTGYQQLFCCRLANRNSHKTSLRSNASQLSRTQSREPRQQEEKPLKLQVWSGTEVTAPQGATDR
Sequence of Histamine H3 receptor (Rattus norvegicus) (Q9QYN8 whole entry): as the sequence (Q9QYN8 whole entry) above

Compound	Ki (Histamine H3 receptor [1]) [nM]	IC50 (Histamine H3 receptor [2]) [nM]	Activity (Rattus norvegicus [3]) [%]	EC50 (Histamine H3 receptor [4]) [nM]	Ki (Histamine H3 receptor [5]) [nM]	other results
CC[C@]12CC[C@@H]3c4ccc(OCCCN5CCCC5)cc4CC[C@H]3[C@@H]1CC[C@@H]2N1CCCC1	16.6	16	69	0.9	0.8	
C[C@]12CC[C@@H]3c4ccc(OCCCCN5CCCC5)cc4CC[C@H]3[C@@H]1CC[C@@H]2N1CCCC1	24.8	7.5	73	0.7	0.8	
C[C@]12CC[C@@H]3c4ccc(OCCCN5CCC(O)CC5)cc4CC[C@H]3[C@@H]1CC[C@@H]2N1CCCC1	24.3	4.2	55	4.4	5	
CC(=O)C1CCN(CCCOc2ccc3c(c2)CC[C@@H]2[C@@H]3CC[C@]3(C)[C@@H](N4CCCC4)CC[C@@H]23)CC1	7.5	14.2		1.4	2.7	
C[C@]12CC[C@@H]3c4ccc(OCCCN5CCCCCC5)cc4CC[C@H]3[C@@H]1CC[C@@H]2N1CCCC1	2.1	17.5	77	0.6	0.6	
C[C@H]1[C@H]2CC[C@H]3[C@@H]4CC=C5C[C@@H](N(C)C)CC[C@]5(C)[C@H]4CC[C@]23CN1C			84			Activity [6]: 34%
C[C@@H]1Cc2cc(OCCCN3CCCC3)ccc2[C@H]2CC[C@]3(C)[C@@H](N4CCCC4)CC[C@H]3[C@H]12	18.3	12	72	0.2	1.2	
CC1CCCN1CCCOc1ccc2c(c1)CC[C@@H]1[C@@H]2CC[C@]2(C)[C@@H](N3CCCC3)CC[C@@H]12 (mixture of isomers)	3.6	12.1	69	0.4	0.5	Ki [7]: 224 nM; Ratio Ki [8]: 62
C[C@@]12CC[C@@H]3c4ccc(OCCCN5CCCC5)cc4CC[C@H]3[C@@H]1CCC2N1CCCC1 (some centres undefined)	6.1	16	71	0.8	1.4	
C[C@]12CC[C@@H]3c4ccc(OCc5ccccc5)cc4CC[C@H]3[C@@H]1CC[C@@H]2N1CCCC1			5		216	
C[C@]12CC[C@H]3[C@@H](CC=C4C[C@@H](OCCCN5CCCC5)CC[C@@]43C)[C@@H]1CC[C@@H]2N1CCCC1	10.2				4.3	Activity (Rattus norvegicus [9]): 92%
C[C@]12CC[C@@H]3c4ccc(OCc5ccncc5)cc4CC[C@H]3[C@@H]1CC[C@@H]2N1CCCC1	7.3		51		0.87	
C[C@]12CC[C@@H]3c4ccc(OCCCN5CCNC(=O)C5)cc4CC[C@H]3[C@@H]1CC[C@@H]2N1CCCC1	3.2	17.4	73	0.6	0.6	
C[C@]12CC[C@@H]3c4ccc(OCc5ccc(Cl)cn5)cc4CC[C@H]3[C@@H]1CC[C@@H]2N1CCCC1	49				1.6	Ki [7]: 705 nM; Activity (Rattus norvegicus [9]): 66%
C[C@]12CC[C@@H]3c4ccc(OCCN5CCCC5)cc4CC[C@H]3[C@@H]1CC[C@@H]2N1CCCC1	23.1	29	69	0.3	1.9	
C[C@]12CC[C@@H]3c4ccc(OCCCN5CCC(O)C5)cc4CC[C@H]3[C@@H]1CC[C@@H]2N1CCCC1 (some centres undefined)	16.8	3.9	64	1.2	5.2	
C[C@]12CC[C@@H]3c4ccc(OCCCN5CCC(C(N)=O)CC5)cc4CC[C@H]3[C@@H]1CC[C@@H]2N1CCCC1	3.1	3	37	3.9	7	
S=C(NC1CCCCC1)N1CCC(c2cnc[nH]2)CC1 [THIOPERAMIDE]	23					Emax (Histamine H3 receptor [10]): 50%
C[C@H]1CCCN1CCCOc1ccc2c(c1)CC[C@@H]1[C@@H]2CC[C@]2(C)[C@@H](N3CCCC3)CC[C@@H]12	5.6	11.6	76	0.6	0.3	Ki [7]: 122 nM; Ratio Ki [8]: 22
Clc1ccc(CCCOCCCN2CCCCC2)cc1 [PITOLISANT]						Ki [7]: 19 nM; Emax (Histamine H3 receptor [10]): 55%
CN1CCC[C@H]2[C@@H]3CC[C@H]4C[C@@H](OC(=O)CCN5CCCC5)CC[C@]4(C)[C@H]3CC[C@@]21C	39		44		10	
C[C@]12CC[C@@H]3c4ccc(OCc5cccnc5)cc4CC[C@H]3[C@@H]1CC[C@@H]2N1CCCC1	19				3	Ki [7]: 797 nM; Activity (Rattus norvegicus [9]): 57%
C[C@]12CC[C@@H]3c4ccc(OCCCN5CCCC5)cc4CC[C@H]3[C@@H]1CC[C@@H]2N1CCCC1	2.4	6.1	74	0.1	0.6	Activity [11]: 64%; Ki [7]: 110 nM; Activity [12]: 36%; Activity [13]: 44%; Activity [14]: 19%; Activity [15]: 26%
